Biological target: Neuronal acetylcholine receptor; alpha4/beta2 (Rattus norvegicus, UniProt P09483+P12390)
Sequence (P09483 whole entry): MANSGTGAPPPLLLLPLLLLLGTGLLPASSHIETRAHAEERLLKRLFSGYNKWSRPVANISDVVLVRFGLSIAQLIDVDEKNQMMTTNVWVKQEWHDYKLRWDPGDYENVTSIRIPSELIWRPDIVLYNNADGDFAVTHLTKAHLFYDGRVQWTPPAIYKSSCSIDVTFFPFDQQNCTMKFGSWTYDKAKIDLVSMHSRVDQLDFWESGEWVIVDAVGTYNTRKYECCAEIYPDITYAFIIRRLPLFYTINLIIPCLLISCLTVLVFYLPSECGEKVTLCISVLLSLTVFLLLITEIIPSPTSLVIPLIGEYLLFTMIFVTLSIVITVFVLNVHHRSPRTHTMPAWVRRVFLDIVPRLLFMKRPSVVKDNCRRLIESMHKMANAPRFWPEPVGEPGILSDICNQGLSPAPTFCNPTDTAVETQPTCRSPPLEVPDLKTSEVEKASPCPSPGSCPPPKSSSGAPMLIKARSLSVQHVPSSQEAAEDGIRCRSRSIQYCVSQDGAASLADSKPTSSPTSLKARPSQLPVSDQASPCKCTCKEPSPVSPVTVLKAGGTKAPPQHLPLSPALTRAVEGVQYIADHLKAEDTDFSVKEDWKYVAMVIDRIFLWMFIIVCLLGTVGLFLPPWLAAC
Sequence (P12390 whole entry): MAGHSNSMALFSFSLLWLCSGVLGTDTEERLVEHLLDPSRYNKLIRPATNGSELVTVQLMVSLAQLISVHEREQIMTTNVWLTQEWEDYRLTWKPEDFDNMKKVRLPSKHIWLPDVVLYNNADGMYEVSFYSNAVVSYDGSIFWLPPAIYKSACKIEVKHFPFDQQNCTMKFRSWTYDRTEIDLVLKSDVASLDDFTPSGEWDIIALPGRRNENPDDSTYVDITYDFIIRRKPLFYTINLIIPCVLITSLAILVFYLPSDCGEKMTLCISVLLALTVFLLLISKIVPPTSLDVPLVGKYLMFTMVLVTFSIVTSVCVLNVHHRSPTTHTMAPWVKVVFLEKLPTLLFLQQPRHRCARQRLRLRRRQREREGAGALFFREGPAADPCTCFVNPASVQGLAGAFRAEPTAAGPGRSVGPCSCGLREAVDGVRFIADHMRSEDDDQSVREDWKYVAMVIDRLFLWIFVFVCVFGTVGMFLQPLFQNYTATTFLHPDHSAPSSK
Assay: Displacement of [3H]cytisine from nAChR alpha4beta2 in rat brain membrane
Format: cell membranes
Conditions: read-out: Ki
`O=C(Nc1cccc(Cl)c1)c1cncc(N2C[C@H]3CNC[C@H]3C2)n1` gave a Ki of 0.7 nM. `c1cncc(N2C[C@H]3CNC[C@H]3C2)c1` showed a Ki of 0.13 nM. `Cc1ccccc1CNC(=O)c1cncc(N2C[C@H]3CNC[C@H]3C2)c1` showed a Ki of 2.7 nM. In the case of `O=C(NCc1ccccc1C(F)(F)F)c1cncc(N2C[C@H]3CNC[C@H]3C2)c1`, the Ki is reported as 0.9 nM. Compound `Cc1ccccc1CNC(=O)c1cncc(N2CC[C@H]3CNC[C@H]32)c1` has a Ki of 871 nM. `O=C(Nc1cc(F)cc(F)c1)c1cncc(N2C[C@H]3CNC[C@H]3C2)n1` gave a Ki of 14 nM. Work on `Cc1cc(C)cc(NC(=O)c2cncc(N3C[C@H]4CNC[C@H]4C3)n2)c1` yielded a Ki of 51 nM. `c1cncc(N2C[C@@H]3CCN[C@@H]3C2)c1` gave a Ki of 2.9 nM. For `c1cnc(N2C[C@H]3CNC[C@H]3C2)cn1`, the Ki was 7.8 nM. `O=C(NCc1ccc(Cl)c(Cl)c1)c1cncc(N2C[C@H]3CNC[C@H]3C2)n1` showed a Ki of 2.5 nM. `O=C(NCCc1ccccc1F)c1cncc(N2C[C@H]3CNC[C@H]3C2)c1` gave a Ki of 0.8 nM. Compound `O=C(c1cncc(N2C[C@H]3CNC[C@H]3C2)c1)N1CCc2ccccc2C1` has a Ki of 0.3 nM. For `O=C(NC1CCc2ccccc21)c1cncc(N2C[C@H]3CNC[C@H]3C2)c1` (stereo not given in full), the Ki was 17 nM. In the case of `O=C(NCCc1ccccc1)c1cncc(N2C[C@H]3CNC[C@H]3C2)n1`, the Ki is reported as 69 nM. For `CN(Cc1ccccc1)C(=O)c1cncc(N2C[C@H]3CNC[C@H]3C2)c1`, the Ki was 3.9 nM. `COc1cc(NC(=O)c2cncc(N3C[C@H]4CNC[C@H]4C3)c2)cc(OC)c1` gave a Ki of 0.3 nM. Work on `CC(C)Oc1cccc(NC(=O)c2cncc(N3C[C@H]4CNC[C@H]4C3)c2)c1` yielded a Ki of 1.1 nM. Work on `c1cncc(N2C[C@H]3CCN[C@H]3C2)c1` yielded a Ki of 0.34 nM.

Tested on: not listed separately
Assay: Agonist activity at nAChR alpha3beta4* expressed in human IMR32 cells assessed as calcium flux by FLIPR assay
Format: functional, cell-based
Conditions: IMR-32, read-out: EC50
For `O=C(Nc1cccc(Cl)c1)c1cncc(N2C[C@H]3CNC[C@H]3C2)n1`, the EC50 was > 100 µM. For `Cc1ccccc1CNC(=O)c1cncc(N2C[C@H]3CNC[C@H]3C2)c1`, the EC50 was > 100 µM. With `O=C(NCc1ccccc1C(F)(F)F)c1cncc(N2C[C@H]3CNC[C@H]3C2)c1` the EC50 was > 100 µM. For `O=C(Nc1cc(F)cc(F)c1)c1cncc(N2C[C@H]3CNC[C@H]3C2)n1`, the EC50 was > 100 µM. In the case of `O=C(NCc1ccc(Cl)c(Cl)c1)c1cncc(N2C[C@H]3CNC[C@H]3C2)n1`, the EC50 is reported as > 100 µM. Work on `O=C(NCCc1ccccc1F)c1cncc(N2C[C@H]3CNC[C@H]3C2)c1` yielded an EC50 of 15.8 µM. With `O=C(c1cncc(N2C[C@H]3CNC[C@H]3C2)c1)N1CCc2ccccc2C1` the EC50 was > 100 µM. For `O=C(NC1CCc2ccccc21)c1cncc(N2C[C@H]3CNC[C@H]3C2)c1` (stereo not given in full), the EC50 was > 100 µM. With `O=C(NCCc1ccccc1)c1cncc(N2C[C@H]3CNC[C@H]3C2)n1` the EC50 was > 100 µM. In the case of `CN(Cc1ccccc1)C(=O)c1cncc(N2C[C@H]3CNC[C@H]3C2)c1`, the EC50 is reported as > 100 µM. For `COc1cc(NC(=O)c2cncc(N3C[C@H]4CNC[C@H]4C3)c2)cc(OC)c1`, the EC50 was > 100 µM. For `CC(C)Oc1cccc(NC(=O)c2cncc(N3C[C@H]4CNC[C@H]4C3)c2)c1`, the EC50 was > 100 µM.

Same assay, conditions: IMR-32, read-out: pEC50 (converted)
For `O=C(NCCc1ccccc1F)c1cncc(N2C[C@H]3CNC[C@H]3C2)c1`, the EC50 was 15.8 µM.

Tested on: not listed separately
Assay: Drug uptake in rat plasma at 2 umol/kg, ip measured after 0.75 hrs
Format: ADME, organism-based
Conditions: not given
With `Cc1ccccc1CNC(=O)c1cncc(N2C[C@H]3CNC[C@H]3C2)c1` the concentration at 0.75 h was 142 ng/mL. In the case of `O=C(NCc1ccccc1C(F)(F)F)c1cncc(N2C[C@H]3CNC[C@H]3C2)c1`, the concentration at 0.75 h is reported as 164 ng/mL. `CN(Cc1ccccc1)C(=O)c1cncc(N2C[C@H]3CNC[C@H]3C2)c1` gave a concentration at 0.75 h of 89.8 ng/mL. In the case of `COc1cc(NC(=O)c2cncc(N3C[C@H]4CNC[C@H]4C3)c2)cc(OC)c1`, the concentration at 0.75 h is reported as 74.5 ng/mL.

Tested on: not listed separately
Assay: Agonist activity at nAChR alpha3beta4* expressed in human IMR32 cells assessed as calcium flux by FLIPR assay relative to nicotine
Format: functional
Conditions: IMR-32
`O=C(Nc1cccc(Cl)c1)c1cncc(N2C[C@H]3CNC[C@H]3C2)n1` gave an Emax of 26%. Work on `Cc1ccccc1CNC(=O)c1cncc(N2C[C@H]3CNC[C@H]3C2)c1` yielded an Emax of 8%. With `O=C(NCc1ccccc1C(F)(F)F)c1cncc(N2C[C@H]3CNC[C@H]3C2)c1` the Emax was 4%. In the case of `O=C(Nc1cc(F)cc(F)c1)c1cncc(N2C[C@H]3CNC[C@H]3C2)n1`, the Emax is reported as 8%. Compound `O=C(NCc1ccc(Cl)c(Cl)c1)c1cncc(N2C[C@H]3CNC[C@H]3C2)n1` has an Emax of 12%. Work on `O=C(NCCc1ccccc1F)c1cncc(N2C[C@H]3CNC[C@H]3C2)c1` yielded an Emax of 6%. Compound `O=C(c1cncc(N2C[C@H]3CNC[C@H]3C2)c1)N1CCc2ccccc2C1` has an Emax of 7%. In the case of `O=C(NC1CCc2ccccc21)c1cncc(N2C[C@H]3CNC[C@H]3C2)c1` (stereo not given in full), the Emax is reported as 10%. With `O=C(NCCc1ccccc1)c1cncc(N2C[C@H]3CNC[C@H]3C2)n1` the Emax was 13%. `CN(Cc1ccccc1)C(=O)c1cncc(N2C[C@H]3CNC[C@H]3C2)c1` gave an Emax of 14%. For `COc1cc(NC(=O)c2cncc(N3C[C@H]4CNC[C@H]4C3)c2)cc(OC)c1`, the Emax was 10%. `CC(C)Oc1cccc(NC(=O)c2cncc(N3C[C@H]4CNC[C@H]4C3)c2)c1` showed an Emax of 10%.

Tested on: not listed separately
Assay: Ratio drug uptake in brain to plasma of rat at 2 umol/kg, ip measured after 0.75 hrs
Format: ADME, organism-based
Conditions: read-out: BPR
In the case of `Cc1ccccc1CNC(=O)c1cncc(N2C[C@H]3CNC[C@H]3C2)c1`, the Kp at 0.75 h is reported as 0.02. For `O=C(NCc1ccccc1C(F)(F)F)c1cncc(N2C[C@H]3CNC[C@H]3C2)c1`, the Kp at 0.75 h was 0.04. Work on `CN(Cc1ccccc1)C(=O)c1cncc(N2C[C@H]3CNC[C@H]3C2)c1` yielded a Kp at 0.75 h of 0.07. Compound `COc1cc(NC(=O)c2cncc(N3C[C@H]4CNC[C@H]4C3)c2)cc(OC)c1` has a Kp at 0.75 h of 0.07.

Tested on: not listed separately
Assay: Drug uptake in rat brain at 2 umol/kg, ip measured after 0.75 hrs
Format: ADME, organism-based
Conditions: read-out: Drug uptake
With `Cc1ccccc1CNC(=O)c1cncc(N2C[C@H]3CNC[C@H]3C2)c1` the concentration at 0.75 h was 3.3 ng/mL. In the case of `O=C(NCc1ccccc1C(F)(F)F)c1cncc(N2C[C@H]3CNC[C@H]3C2)c1`, the concentration at 0.75 h is reported as 6.9 ng/mL. With `CN(Cc1ccccc1)C(=O)c1cncc(N2C[C@H]3CNC[C@H]3C2)c1` the concentration at 0.75 h was 6 ng/mL. `COc1cc(NC(=O)c2cncc(N3C[C@H]4CNC[C@H]4C3)c2)cc(OC)c1` showed a concentration at 0.75 h of 5.5 ng/mL.

— ChEMBL document CHEMBL1938346, “Structure-activity studies of diazabicyclo[3.3.0]octane-substituted pyrazines and pyridines as potent α4β2 nicotinic acetylcholine receptor ligands” (J Med Chem, 2011)
